Residues, ends and D or L forms follow the SMILES beside them. *: point of attachment. βNA = c1ccc2cc(N*)ccc2c1
Assays:
P. aeruginosa 666 SJD = assay: Intracellular accumulation of acridine orange; assay type: cell-based; conditions: PaβN 20 µg/mL, AO 0.25 µg/mL, 30 min, fluorescence
Protocol: (§1) The assay was performed as previously described by Armengol et al. including control and clinical strains (E. coli 208691 and P. aeruginosa 666 SJD) previously studied by our group. Briefly, 96-well flat-bottomed microtiter plates (Guangzhou Jet Bio-Filtration Co., Ltd., Mianyang, China) were used. Overnight cultures were diluted in 1/4 Ringer’s solution to an OD520nm of 1.5, and 100 µL was added to the wells previously filled with 100 µL of Ringer’s solution. Acridine Orange (AO) was added to a final concentration of 0.25 µg/mL. The inoculated plates were then incubated for 30 min with shaking, after which the fluorescence was measured in a FLUOstar OPTIMA fluorescence microplate reader (BMG Labtech, Ortenberg, Germany).
(§2) To determine the uptake and accumulation of AO by bacteria, different scenarios were compared. First, bacteria were examined in the presence of PAβN at 20 µg/mL, and then in the presence of different concentrations of the dendrimers at (MIC, ½ MIC, ¼ MIC). The results in each condition were expressed as the percentage increase in fluorescence with respect to the control.

E. coli 208691 = assay: Intracellular accumulation of acridine orange; assay type: cell-based; conditions: AO 0.25 µg/mL, 30 min
Protocol: as §1, §2

P. aeruginosa ATCC 27853 [1] = assay: Intracellular accumulation of acridine orange; assay type: cell-based
Protocol: as §1, §2

E. coli ATCC 25922 [2] = assay: Atomic force microscopy of treated bacteria; assay type: cell-based; conditions: E. coli ATCC 25922, dendrimer at MIC, 4 h, 37 °C
Protocol: E. coli ATCC 25922 was grown at 37 °C in Mueller Hinton cation-adjusted broth to an optical density of 0.25 at 625 nm. Dendrimers were added to a starting inoculum of 10^6 CFU/mL and incubated for 4 h at 37 °C with shaking. Untreated E. coli was included as a control. Cells in 1 mL of culture were centrifuged at 5000 rpm for 5 min and washed three times with 1 mL of sterile water. The bacterial cells were then resuspended in 100 µL of sterile water and a 10 µL drop was applied to a freshly cleaved mica surface and allowed to dry for approximately 10 min at room temperature.
The disk surfaces were analyzed by atomic force microscopy using an AFM XE-70 (Park Systems, Suwon, Korea) in non-contact mode with an ACTA 10M cantilever. […] The AFM images were processed using a scanning probe image processor XEI (Park Systems), correcting the plane of the AFM image for any coupling of the lateral plane and the z-axis caused by the instrument.

E. coli ATCC 25922 [3] = assay type: cell-based
Protocol: (§3) The real-time effect of the peptide dendrimers was examined on the growth curves of E. coli ATCC 25922 and P. aeruginosa ATCC 27853. Volumes of 10 mL of TSB liquid cultures containing 1–5 × 10^5 CFU/mL in the logarithmic phase were adjusted in Falcon tubes. Peptide dendrimers were then added at MIC and sub-inhibitory concentrations (½ MIC and ¼ MIC). Incubation was performed in RTS-1C real-time reverse spin bioreactors RTS-1 (Biosan) for 24 h at 37 °C and 2000 rpm. Growth was measured noninvasively as optical density (OD 850 nm) every 15 min.

S. aureus ATCC 29213 = assay type: cell-based; conditions: broth microdilution, MHBCA, 24 h, 37 °C, visual turbidity
Protocol: (§4) The antimicrobial activity of the dendrimers was evaluated against E. coli ATCC 25922, P. aeruginosa ATCC 27853 and S. aureus ATCC 29213 strains. The MIC values were determined by the broth microdilution method. Briefly, the different strains were grown in Muller Hinton broth cation adjusted (MHBCA) medium overnight at 37 °C with shaking at 200 rpm. The bacterial cultures were then adjusted to OD625nm of 0.08–0.1, and 5 μL of each diluted suspension was added to 96-well plates previously filled with MHBCA and serially diluted peptides. Plates were incubated for 24 h at 37 °C. Finally, the MIC was determined macroscopically, based on the visual turbidity of the wells.

E. coli ATCC 25922 [4] = assay type: cell-based; conditions: broth microdilution, MHBCA, 24 h, 37 °C, visual turbidity
Protocol: as §4

P. aeruginosa ATCC 27853 [5] = assay type: cell-based; conditions: broth microdilution, MHBCA, 24 h, 37 °C, visual turbidity
Protocol: as §4

[6] = Black lipid bilayers conductance; conditions: DiPhPC/PS 4:1 in n-decane, 1 M KCl, −80, −120 and −180 mV
Protocol: The basic methods have been described previously. Membranes were prepared from 1% lipid a mixture of di-phytanoyl-phosphatidylcholine/di-phytanoylphosphatidylserine (DiPhPC/PS) in a molar ratio of 4:1 in n-decane (Avanti Polar Lipids, Delfzyl, The Netherlands). Bilayers were painted over a 2 mm^2 hole in a Teflon divider separating two compartments containing 5 mL each of a bathing solution of 1MKCl. Voltages were applied across the membrane via calomel electrodes connected by a salt bridge. The resultant current was amplified 10^8-fold by a current amplifier and recorded on a Rikadenski chart recorder. A concentration of 1 μg/mL of the dendrimer was used based on the results of Wu et al..

P. aeruginosa ATCC 27853 [7] = assay: Bacterial growth curves; assay type: cell-based; conditions: P. aeruginosa ATCC 27853, TSB, MIC, ½ MIC and ¼ MIC, 24 h, 37 °C, OD 850 nm
Protocol: as §3

P. aeruginosa ATCC 27853 [8] = assay: Time-kill curves; assay type: cell-based; conditions: P. aeruginosa ATCC 27853, ½ MIC
Protocol: The death kinetics of the active dendrimers were examined by plotting their time-kill curves against E. coli ATCC 25922 and P. aeruginosa ATCC 27853. The dendrimers were added to a starting bacterial inoculum of 10^6 CFU/mL in 5 mL of MHBCA medium. Dendrimers were tested at three different concentrations: MIC, ½ MIC and ¼ MIC. They were incubated for 24 h at 37 °C with shaking at 200 rpm. Samples were aseptically collected at 0, 1, 2, 4 and 6 h, serially diluted in Ringer ¼ and plated on Tryptone soy agar for colony counting.
The response of the microbial strains to the dendrimers was determined based on a logarithmic decrease in viable bacteria. A compound was considered active if it caused a reduction of ≥1 log10 CFU/mL, compared to the corresponding counts at time 0 h. In addition, a dendrimer was considered bactericidal if it caused a reduction of ≥3 log10 CFU/mL [40].

Compound | AO accumulation (untreated control = 100%) (P. aeruginosa 666 SJD) [%] | AO accumulation (untreated control = 100%) (E. coli 208691; E. coli 208691, PaβN 20 µg/mL, fluorescence) [%] | changes in AO accumulation by susceptible strains (in words) (P. aeruginosa ATCC 27853 [1]; susceptible strains, PaβN 20 µg/mL) | AO accumulation (in words) (E. coli 208691; E. coli 208691, dendrimers at MIC, ½ MIC, ¼ MIC) | AO accumulation (in words) (P. aeruginosa ATCC 27853 [1]; P. aeruginosa ATCC 27853, dendrimers at MIC) | bacterial surface alteration by AFM (in words) (E. coli ATCC 25922 [2]) | effect on growth curve (in words) (E. coli ATCC 25922 [3]; E. coli ATCC 25922, TSB, MIC, ½ MIC and ¼ MIC, 24 h, 37 °C, OD 850 nm) | delay in the onset of detectable turbidity (E. coli ATCC 25922 [3]; E. coli ATCC 25922, at concentrations lower than ½ MIC) [h] | prolongation of lag phase (E. coli ATCC 25922 [3]; E. coli ATCC 25922, at ¼ MIC) [h] | concentration that completely inhibited detectable growth (E. coli ATCC 25922 [3]; E. coli ATCC 25922, growth curves, 24 h) [µg/mL] | MIC S. aureus ATCC 29213 (S. aureus ATCC 29213) [µg/mL] | MIC E. coli ATCC 25922 (E. coli ATCC 25922 [4]) [µg/mL] | MIC P. aeruginosa ATCC 27853 (P. aeruginosa ATCC 27853 [5]) [µg/mL] | channel formation in planar lipid bilayers (conductance) [6] | effect on growth curve (in words) (P. aeruginosa ATCC 27853 [7]) | time-kill activity at ½ MIC (in words) (P. aeruginosa ATCC 27853 [8])
NC(N)=NCCC[C@H](NC(=O)[C@@H](N)Cc1ccccc1)C(=O)Nc1ccc2ccccc2c1 [PaβN, reference compound] (H-Phe-Arg-βNA) | ≥ 140 | ≥ 140 | almost negligible | – | – | – | – | – | – | – | – | – | – | – | – | –
H-[(LK)3-EDA]4-(TA-EDA)2-TA-(LK)3-NH2 [Dendrimer 3] | – | – | – | increase in the AO accumulation with clear differences between the MIC, ½ MIC and ¼ MIC | slight increase in AO accumulation | significant surface damages | inhibited the growth at the MIC and ½ MIC | 10 | 6 | 4 | >64 | 8 | 32 | did not induce membrane channels | complete growth inhibition occurred at the MIC | higher antimicrobial activity than dendrimer 1

Reference: article PMC11172478, “1,3,5-Triazine as Branching Connector for the Construction of Novel Antimicrobial Peptide Dendrimers: Synthesis and Biological Characterization” (International Journal of Molecular Sciences, 2024)
